Reference: BigSolDB 2.1

O=C(O)CCCCCCCC(=O)O
Details	solubility (mole fraction)
in acetic acid, 289.05 K	0.022
in acetic acid, 293.95 K	0.0279
in acetic acid, 298.85 K	0.0355
in acetic acid, 303.45 K	0.0452
in acetic acid, 308.35 K	0.0582
in acetic acid, 313.35 K	0.0746
in acetic acid, 318.85 K	0.0964
in acetic acid, 325.35 K	0.132
in acetic acid, 330.95 K	0.169
in acetic acid, 337.35 K	0.223
in acetic acid, 341.75 K	0.265
in acetone, 276.65 K	0.00895
in acetone, 279.45 K	0.0103
in acetone, 283.15 K	0.0129
in acetone, 286.95 K	0.0158
in acetone, 294.15 K	0.0228
in acetone, 297.55 K	0.0275
in acetone, 303.05 K	0.0365
in acetone, 306.55 K	0.0438
in acetone, 312.05 K	0.0587
in acetone, 316.15 K	0.0732
in acetone, 320.95 K	0.1
in acetone, 325.35 K	0.12
in ethanol, 276.75 K	0.0212
in ethanol, 280.05 K	0.0253
in ethanol, 283.25 K	0.0292
in ethanol, 288.15 K	0.0362
in ethanol, 293.05 K	0.0449
in ethanol, 297.55 K	0.0546
in ethanol, 304.05 K	0.069
in ethanol, 307.35 K	0.083
in ethanol, 312.05 K	0.0969
in ethanol, 317.05 K	0.117
in ethanol, 322.05 K	0.143
in ethanol, 326.85 K	0.166
in ethanol, 332.05 K	0.202
in ethanol, 336.55 K	0.234
in ethylene glycol, 278.65 K	0.0083
in ethylene glycol, 283.35 K	0.01
in ethylene glycol, 288.05 K	0.0105
in ethylene glycol, 292.85 K	0.0144
in ethylene glycol, 297.35 K	0.0241
in ethylene glycol, 303.35 K	0.03
in ethylene glycol, 307.35 K	0.0395
in ethylene glycol, 312.25 K	0.0496
in ethylene glycol, 317.05 K	0.0622
in ethylene glycol, 321.55 K	0.0791
in ethylene glycol, 326.45 K	0.103
in ethylene glycol, 331.35 K	0.131
in ethylene glycol, 336.15 K	0.167
